Assay results published in patent US12312599B2, “Methods, compositions, and kits for producing beige adipocytes and treating metabolic disorders” (MaineHealth, priority 2018, dated 2025).

Experiments:
[1] = system: FD-MSCs; assay: BODIPY lipid stain of FD-MSCs during adipogenic differentiation; format: cell-based, human
Description: All assays were performed between 7 and 15 passages. For osteocyte differentiation, mature MSCs were grown in 24 well culture plates to 100% confluency in MesenCult-ACF and induced to differentiate in OsteoLife Complete Osteogenesis Medium (Lifeline Cell Technology) for 21 days prior to staining with Lifeline Alizarin Red Stain to visualize calcium deposition. For chondrocyte differentiation. For beige adipogenic precursor generation, cells were grown in 24 well culture plates to 90% confluence and treated with 5 uM SB413542 (Sigma) and 10 nM human IL-4 (Peprotech) for 2 days. For beige adipogenic induction, adipogenic precursors are differentiated for 3 days with adipogenic medium consisting of T3 (2 nM), insulin (170 nM), rosiglitazone (1 μM), SB413542 (5 uM), IBMX (0.5 mM), dexamethasone (5 μM) and indomethacin (125 μM) in EGM-2 medium (Lonza) supplemented with the BulletKit minus FGF2 (modified from^33). Thereafter, cells are maintained in adipogenic medium without IBMX, dexamethasone and indomethacin. The medium was changed every 3 days and adipocytes were fully differentiated by 9-12 days as determined by lipid accumulation and peak expression of UCP1. Cell Isolation, Expansion and Differentiation of Interscapular Brown Adipose Tissue Preadipocytes • 1. Prior to adipose cell isolation, warm DMEM, FBS and cell wash buffer to room temperature. • 2. In a laminar flow cabinet for cell culture, place 5 g of adipose tissue on a 100×20 mm dish. Suspend tissue in 1 mL of Adipose Tissue Dissociation Kit enzyme digest cocktail and finely mince with a razorblade. • 3. […] Incubate tube at 37° C. on a rotating nutator for 30 minutes. During incubation period, briefly vortex sample for 5 s in 10-minute intervals. • 5. Transfer cells to a 15 mL tube and add 5 mL of DMEM. Filter cell suspension through a 100 μm strainer into a new 15 mL tube and centrifuge at 300 g for 5 minutes to form a pellet. • 6. Remove supernatant and leave behind […] of DMEM. Resuspend cell pellet in 10 mL of DMEM containing 10% FBS and plate in a 100×20 mm dish for expansion. Agitate plate to spread cells evenly on well surface and incubate plate at 37° C. in a 5% CO2 incubator undisturbed. Change 100% of medium every day. • 7. Upon 80% confluence, split and passage cells at a ratio of 1:6. • 8. Prepare for passage by warming cell wash buffer and cell culture medium (DMEM containing 10% FBS) to room temperature. Warm TrypLE dissociation reagent to 37° C. • 9. Aspirate cell culture medium from wells and wash once with PBS. Remove PBS and add 500 μL of pre-warmed TrypLE reagent to each well of a 6 well plate. Scale TrypLE amount for larger tissue culture plates accordingly. • 10. Incubate culture plate at 37° C. for 5 minutes. […]

[2] = system: SMAD2; assay: Western blot of phosphorylated SMAD2 in FD-MSCs; format: cell-based, human; conditions: SB pretreatment 2 days in MesenCult-ACF
Description: All assays were performed between 7 and 15 passages. For osteocyte differentiation, mature MSCs were grown in 24 well culture plates to 100% confluency in MesenCult-ACF and induced to differentiate in OsteoLife Complete Osteogenesis Medium (Lifeline Cell Technology) for 21 days prior to staining with Lifeline Alizarin Red Stain to visualize calcium deposition. For chondrocyte differentiation. For beige adipogenic precursor generation, cells were grown in 24 well culture plates to 90% confluence and treated with 5 uM SB413542 (Sigma) and 10 nM human IL-4 (Peprotech) for 2 days. For beige adipogenic induction, adipogenic precursors are differentiated for 3 days with adipogenic medium consisting of T3 (2 nM), insulin (170 nM), rosiglitazone (1 μM), SB413542 (5 uM), IBMX (0.5 mM), dexamethasone (5 μM) and indomethacin (125 μM) in EGM-2 medium (Lonza) supplemented with the BulletKit minus FGF2 (modified from^33). Thereafter, cells are maintained in adipogenic medium without IBMX, dexamethasone and indomethacin. The medium was changed every 3 days and adipocytes were fully differentiated by 9-12 days as determined by lipid accumulation and peak expression of UCP1. […] SWATH runs were extracted and analyzed using PeakView software and MarkerView software was utilized to find statistically relevant relationships through t test comparisons. […]

[3] = SB throughout the adipogenic differentiation period, day 12

NC(=O)c1ccc(-c2nc(-c3ccc4c(c3)OCO4)c(-c3ccccn3)[nH]2)cc1 [SB, SB431542]
lipid accumulation ([1]; SB for 2 days before and throughout the 12-day adipogenic differentiation): greatest amount of lipid accumulation | additional increase in lipid droplet staining ([1]; SB prior to and during differentiation, versus SB during differentiation alone): 45% | cells in culture with lipid content [1, 3]: approximately 50% | increase in lipid content [1, 3]: 5 fold | constitutive phosphorylation of SMAD2 [2]: inhibited
